# Assay results reported in patent US20240016953A1, “TARGETED DELIVERY OF NICOTINAMINDE ADENINE DINUCLEOTIDE SALVAGE PATHWAY INHIBITORS” (Seagen Inc., priority 2016, published 2024).
# Legend:
# [1] = tested on: BxPC-3 (pancreatic adenocarcinoma); test: Cytotoxicity (CellTiter-Glo) assay, BxPC-3; format: cell-based; conditions: Homo sapiens, BXPC-3, read-out: IC50, Cytotoxicity BxPC-3
# Procedure: (§1) Example 99: Binding and cytoxicity of NAMPTi compounds. NAMPTi compounds and derivatives thereof bearing functional groups on their NAMPT Tail (TN) Units for covalent attachment as a NAMPT Drug Unit to a Linker Unit of a Drug Linker compound or Ligand Drug Conjugate were evaluated for binding to enzymatically competent NAMPT using a fluorescence polarization assay as described in Example X, and for cytotoxicity using the CellTiter-Glo™ assay as described in Example XX. […] In vitro cytotoxicities were more varied, with differences in membrane permeability potentially influencing the observed IC50 values. Tighter-binding compounds determined from the polarization assay representation various NAMPT Head Unit classes were selected for further elaboration into drug linker moieties within Drug Linker compounds and Ligand Drug Conjugates. Those elaborations employed carbamate or benzyl ether functional groups or methylene-alkoxy carbamate (MAC) units for covalent attachment of the NAMPT Drug Unit to a self-immolative Spacer Unit in the Linker Units of the drug linker moieties, depending on the functional group presented by the TN Unit.
# [2] = tested on: L540cy (Hodgkin's lymphoma); test: Cytotoxicity (CellTiter-Glo) assay, L540cy; format: cell-based; conditions: read-out: IC50, Cytotoxicity L540cy
# Procedure: as §1
# [3] = target: T1, NAMPT (Homo sapiens, UniProt P43490); test: Fluorescence polarization (FP) assay for binding to purified NAMPT; conditions: for IC50: NAMPT 120 nM, fluorescent probe 30 nM, 4 hours at room temp
# T1 construct: made in house; host or cells: E. coli (pET28a vector, Novagen)
# T1 sequence (P43490 whole entry): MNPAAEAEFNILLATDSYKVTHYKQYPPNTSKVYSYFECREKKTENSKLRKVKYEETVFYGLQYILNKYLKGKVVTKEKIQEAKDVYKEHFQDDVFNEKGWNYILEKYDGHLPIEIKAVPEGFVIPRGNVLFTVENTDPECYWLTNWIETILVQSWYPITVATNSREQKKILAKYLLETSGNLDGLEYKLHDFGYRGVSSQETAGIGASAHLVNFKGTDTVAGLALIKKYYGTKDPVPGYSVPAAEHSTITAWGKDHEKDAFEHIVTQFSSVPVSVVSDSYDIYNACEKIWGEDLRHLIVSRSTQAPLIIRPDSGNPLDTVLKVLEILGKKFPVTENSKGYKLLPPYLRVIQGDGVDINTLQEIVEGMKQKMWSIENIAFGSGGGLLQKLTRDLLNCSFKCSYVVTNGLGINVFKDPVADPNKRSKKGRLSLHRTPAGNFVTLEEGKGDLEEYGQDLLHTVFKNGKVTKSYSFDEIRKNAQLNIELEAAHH
# [4] = tested on: HepG2 (hepatocellular carcinoma); test: Cytotoxicity (CellTiter-Glo) assay, HepG2; format: cell-based; conditions: Homo sapiens, HepG2, read-out: IC50, Cytotoxicity HepG2
# Procedure: as §1
# [5] = tested on: MOLM-13 (acute myeloid leukemia); test: Cytotoxicity (CellTiter-Glo) assay, MOLM-13; format: cell-based; conditions: Homo sapiens, MOLM-13, read-out: IC50, Cytotoxicity MOLM-13
# Procedure: as §1
SMILES,IC50 [1] [nM],IC50 [2] [nM],IC50 [3] [nM],IC50 [4] [nM],IC50 [5] [nM],"Change in NAMPT enzyme binding on modification of the TN Unit, relative to parent NAMPTi compound ([3]; FP assay, in words)"
O=C(CCCCCCCNc1c(Nc2ccncc2)c(=O)c1=O)N1CCC(O)CC1 [compound 67],1000,265,16,948,108,
"CN(CC1(CO)CCCC1)C(=O)CCCCCCCN/C(=N\C#N)Nc1ccncc1 [compound 80, (E)-8-(2-Cyano-3-(Pyridin-4-Yl)Guanidino)-N-((1-(Hydroxymethyl)Cyclopentyl)Methyl)-N-Methyloctanamide]",6.12,0.78,17,1.08,1.63,
"CN(CCO)C(=O)CCCCCCCN/C(=N\C#N)Nc1ccncc1 [compound 83, (E)-8-(2-Cyano-3-(Pyridin-4-Yl)Guanidino)-N-(2-Hydroxyethyl)-N-Methyloctanamide]",886,51.2,32,75.4,153,
"O=C(CCCCCCNc1c(Nc2ccncc2)c(=O)c1=O)N(OCCN1CCOCC1)C1CCCCC1 [compound 52, reference compound]",39,4.76,41,8.75,5.26,
"O=C(/C=C/c1cccnc1)NCCCCC1CCN(C(=O)c2ccc(O)cc2)CC1 [compound 7, (E)-N-(4-(1-(4-Hydroxybenzoyl)Piperidin-4-Yl)Butyl)-3-(Pyridin-3-Yl)Acrylamide]",,,79,,,
"O=C(/C=C/c1cccnc1)NCCCCC1CCN(C(=O)c2ccccc2O)CC1 [compound 8, (E)-N-(4-(1-(2-Hydroxybenzoyl)Piperidin-4-Yl)Butyl)-3-(Pyridin-3-Yl)Acrylamide]",643,87.3,101,221,99,
"Nc1ccc(C(=O)N2CCC(CCCCNC(=O)/C=C/c3cccnc3)CC2)cc1 [compound 4, (E)-N-(4-(1-(4-Aminobenzoyl)Piperidin-4-Yl)Butyl)-3-(Pyridin-3-y1)Acrylamide]",,,114,,,
O=C(CCCCCCCNc1c(Nc2ccncc2)c(=O)c1=O)N1CC(O)C1 [compound 68],1000,1000,27,1000,811,
"N#C/N=C(\NCCCCCCCC(=O)N(CCO)Cc1ccco1)Nc1ccncc1 [compound 81, (E)-8-(2-Cyano-3-(Pyridin-4-Yl)Guanidino)-N-(Furan-2-Ylmethyl)-N-(2-Hydroxyethyl)Octanamide]",17.7,1.6,24,6.44,2.07,
"CN(CC1(CO)CCCC1)C(=O)CCCCCCCNc1c(Nc2ccncc2)c(=O)c1=O [compound 69, 8-((3,4-Dioxo-2-(Pyridin-4-Ylamino)Cyclobut-1-En-1-Yl)Amino)-N-((1-(Hydroxymethyl)Cyclopentyl)Methyl)-N-Methyloctanamide]",96.9,9.12,35,12.5,18,
"O=C(/C=C/c1cccnc1)NCCCCC1CCN(C(=O)c2ccccc2)CC1 [FK-866, reference compound]",36.2,7.32,,5.45,6.64,
"N#CN=C(NCCCCCCOc1ccc(Cl)cc1)Nc1ccncc1 [CHS-828, reference compound]",8.02,2.22,,1.16,4.62,
"Nc1ccccc1C(=O)N1CCC(CCCCNC(=O)/C=C/c2cccnc2)CC1 [compound 5, (E)-N-(4-(1-(2-Aminobenzoyl)Piperidin-4-Yl)Butyl)-3-(Pyridin-3-Yl)Acrylamide]",694,35,101,1000,40,
"O=C(/C=C/c1cccnc1)NCCCCC1CCN(C(=O)c2ccc(OCCO)cc2)CC1 [compound 10, (E)-N-(4-(1-(4-(2-Hydroxyethoxy)Benzoyl)Piperidin-4-Yl)Butyl)-3-(Pyridin-3-Yl)Acrylamide]",,,91,,,
"O=C(/C=C/c1cccnc1)NCCCCC1CCN(C(=O)c2cccc(O)c2)CC1 [compound 6, (E)-N-(4-(1-(3-Hydroxybenzoyl)Piperidin-4-Yl)Butyl)-3-(Pyridin-3-Yl)Acrylamide]",193,20,36,29,8,
Nc1cccc(C(=O)N2CCC(CCCCNC(=O)/C=C/c3cccnc3)CC2)c1 [compound 3],38.5,8.5,40,8,7,
O=C(CCCCCCCNc1c(Nc2ccncc2)c(=O)c1=O)N(CCO)Cc1ccco1 [compound 66],209,22.5,24,59.8,26.9,
"CN(CCON(C(=O)CCCCCCNC(=O)Nc1ccncc1)C1CCCCC1)C(=O)c1cccc(N)c1 [compound 43, 3-Amino-N-(2-((N-Cyclohexyl-7-(3-(Pyridin-4-Yl)Ureido)-Heptanamido)Oxy)Ethyl)-N-Methylbenzamide]",8,3,82,4,6,significant improvement in binding relative to parent compound 30
CCN(CCON(C(=O)CCCCCCNc1c(Nc2ccncc2)c(=O)c1=O)C1CCCCC1)C(=O)c1cccc(N)c1 [compound 60],126,31,62,35,8,
"O=C(/C=C/c1cccnc1)NCCCCC1CCN(C(=O)c2cccc(OCCO)c2)CC1 [compound 9, (E)-N-(4-(1-(3-(2-Hydroxyethoxy)Benzoyl)Piperidin-4-Yl)Butyl)-3-(Pyridin-3-Yl)Acrylamide]",,,80,,,
CN(CCO)C(=O)CCCCCCCNc1c(Nc2ccncc2)c(=O)c1=O [compound 72],1000,1000,29,1000,807,
"N#C/N=C(\NCCCCCCCC(=O)N1CCC(O)CC1)Nc1ccncc1 [compound 82, (E)-2-Cyano-1-(8-(4-Hydroxypiperidin-1-Yl)-8-Oxooctyl)-3-(Pyridin-4-Yl)Guanidine]",169,39,,25,10,
